Earlier results as cited in patent publication US6645913B2, “Adjuvant composition” (Cognis Corporation, priority 1999, dated 2003).

Details: glyphosate in acid form

O=C(O)CNCP(=O)(O)O [glyphosate, N-phosphonomethylglycine]
water solubility: about 1.2%
